Source: PMC5038320, “Cryptosporidium and Toxoplasma Parasites Are Inhibited by a Benzoxaborole Targeting Leucyl-tRNA Synthetase” (Antimicrobial Agents and Chemotherapy, 2016)
Read-outs that look alike come from different tables or passages of the source.

Assays:
[1] = molecular target: T1, C. muris cytosolic leucyl-tRNA synthetase (CmLeuRS) editing domain (Cryptosporidium muris, UniProt B6AA20); test: ITC; crystal structure ([…] Å); format: binding
T1 construct: gene CMU_041310; connective polypeptide domain (CP1) residues 254 to 541

[2] = molecular target: T1, C. muris cytosolic leucyl-tRNA synthetase (CmLeuRS) editing domain; test: ITC; crystal structure ([…] Å); format: binding; remark: listed apart in the source

T1 sequence (B6AA20 entry or part of it): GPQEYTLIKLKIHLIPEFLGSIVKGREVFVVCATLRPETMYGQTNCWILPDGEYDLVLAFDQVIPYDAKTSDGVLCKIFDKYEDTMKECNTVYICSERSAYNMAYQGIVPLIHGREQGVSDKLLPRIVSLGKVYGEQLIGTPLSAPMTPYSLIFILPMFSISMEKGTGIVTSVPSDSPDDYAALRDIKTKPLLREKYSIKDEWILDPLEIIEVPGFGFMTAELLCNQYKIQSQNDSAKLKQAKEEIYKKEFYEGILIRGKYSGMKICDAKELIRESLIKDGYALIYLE

`CC[C@H](C)[C@H](N)C(=O)N[C@@H]1[C@H](O)[C@@H](CO)O[C@H]1n1cnc2c(N)ncnc21` [Ile2AA, 2-(L-isoleucyl)amino-2-deoxyadenosine] was tested, and the Kd [1] was 215 µM.

For `CCC[C@H](N)C(=O)N[C@@H]1[C@H](O)[C@@H](CO)O[C@H]1n1cnc2c(N)ncnc21` [Nva2AA, 2-(L-norvalyl)amino-2-deoxyadenosine], the Kd [2] was 213 µM.
